Earlier results in PMC3150604 (Journal of medicinal chemistry, 2011).

Target: σ1 receptor
Conditions: read-out: σ1 receptor Ki; literature value ref 46

In the case of `O[C@H]1CCCC[C@@H]1N1CCC(c2ccc(I)s2)CC1` [compound 5, (1S,2S)-2-(4-(5-iodothiophen-2-yl)piperidin-1-yl)cyclohexanol], the Ki is listed as 9.39 nM.
